The text below walks through data of PubChem BioAssay (NCI).

Among the test systems are SN12C renal; LOX IMVI melanoma; COLO 205 colon; IGROV1 ovarian; SK-MEL-5 melanoma; TK-10 renal; T-47D breast; RXF 393 renal; NCI-H226 lung; MDA-MB-435; NCI-H23 lung; ACHN renal; A498 renal; MOLT-4 leukemia; BT-549 breast; OVCAR-5 ovarian; 786-0 renal.
Assay in all cases: NCI anticancer screen, dose series, 48 h

Each structure is given as a SMILES string. Values joined by “and” are separate entries in the source; they are usually repeats but may differ in a detail not shown here. Equal values may be shown once.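 Compound exposure: 48 hours, 5 concentrations, 96-well plates. GI50 marks 50% less growth. TGI is the concentration that stops growth completely.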

Turning to `O=C(/C=C/c1ccc(O)c(O)c1)Oc1ccccc1`, the TGI in the assay with SN12C renal was 48.7 µM; in the assay with LOX IMVI melanoma, 21 µM; in the assay on COLO 205 colon, 29.2 µM; in the assay with IGROV1 ovarian, 30.6 µM; with SK-MEL-5 melanoma, 33 µM; with TK-10 renal it was over 100 µM. Besides, the TGI in the assay on T-47D breast is 65.2 µM; in the assay on RXF 393 renal it was 40.1 µM; with NCI-H226 lung, over 100 µM; with MDA-MB-435, over 74.2 µM; with NCI-H23 lung, 46.2 µM; with ACHN renal it was 41.7 µM. Besides, the TGI is over 100 µM in the assay with A498 renal; over 48.4 µM in the assay on MOLT-4 leukemia; 53.6 µM in the assay with BT-549 breast; over 96.3 µM with OVCAR-5 ovarian; 48.1 µM with 786-0 renal.
`COC(=O)c1ccccc1C1CN=NC12Cc1c(C)c3c(c(C)c1C2=O)CCC3` (stereo unspecified): the TGI with SN12C renal is over 100 µM; with LOX IMVI melanoma, over 100 µM; in the assay on COLO 205 colon it was over 100 µM; in the assay on IGROV1 ovarian, over 100 µM; in the assay on SK-MEL-5 melanoma, over 100 µM; in the assay with TK-10 renal it was 90.8 µM. Further, the TGI with T-47D breast, with RXF 393 renal, in the assay with NCI-H226 lung, in the assay with MDA-MB-435, in the assay with NCI-H23 lung and in the assay with ACHN renal was over 100 µM throughout. Besides, the TGI with A498 renal, in the assay on MOLT-4 leukemia, in the assay on BT-549 breast, in the assay on OVCAR-5 ovarian and in the assay with 786-0 renal was over 100 µM in each case.
Turning to `O=c1[nH]ncc2[nH]c3c(c12)CCCc1ccccc1-3`, the TGI in the assay on SN12C renal is over 100 µM; in the assay on LOX IMVI melanoma it was over 100 µM; in the assay with COLO 205 colon, 53.2 µM; in the assay on IGROV1 ovarian, over 100 µM; with SK-MEL-5 melanoma, over 100 µM; in the assay on TK-10 renal, over 100 µM. The TGI in the assay with T-47D breast was over 100 µM; in the assay on RXF 393 renal it was 41.9 µM; in the assay with NCI-H226 lung, over 100 µM; in the assay on MDA-MB-435, 82.9 µM; in the assay with NCI-H23 lung, over 100 µM; with ACHN renal, over 100 µM. The TGI was 66.3 µM in the assay with A498 renal; over 100 µM in the assay on MOLT-4 leukemia; over 100 µM with BT-549 breast; over 100 µM in the assay on OVCAR-5 ovarian; over 100 µM with 786-0 renal.
Consider `CCOC(=O)C1=C(C)N(Cc2ccc(Cl)cc2Cl)C2(O)C(OC)CC(=O)C3C(=O)N(c4ccccc4)C(=O)C132` (stereo unspecified), for which the TGI in the assay on SN12C renal is 9.9 µM; in the assay with LOX IMVI melanoma, 2.23 µM; with COLO 205 colon, 13.4 µM; with IGROV1 ovarian it was 16.9 µM; in the assay on SK-MEL-5 melanoma, 16.2 µM; in the assay with TK-10 renal, 22.8 µM. Also, the TGI was 2.57 µM in the assay on T-47D breast; 3.14 µM in the assay with RXF 393 renal; 9.02 µM with NCI-H226 lung; 11.8 µM with MDA-MB-435; 15.7 µM with NCI-H23 lung; 15.2 µM with ACHN renal. Besides, the TGI with A498 renal was determined as 22.7 µM; in the assay with MOLT-4 leukemia it was 7.82 µM; with BT-549 breast, 5.61 µM; with OVCAR-5 ovarian, 28.5 µM; with 786-0 renal, 4.11 µM.
Regarding `CCOc1ccccc1N=NC1C(=O)N(C(=O)CC(=O)Nc2ccccc2Cl)N=C1C` (stereo unspecified), the TGI in the assay on SN12C renal, in the assay with LOX IMVI melanoma, in the assay on COLO 205 colon, in the assay with IGROV1 ovarian, with SK-MEL-5 melanoma and in the assay with TK-10 renal was over 100 µM each time. The TGI in the assay on T-47D breast, in the assay on RXF 393 renal, with NCI-H226 lung, in the assay with MDA-MB-435, with NCI-H23 lung and in the assay on ACHN renal was over 100 µM throughout. Further, the TGI in the assay with A498 renal, in the assay with MOLT-4 leukemia, with BT-549 breast, with OVCAR-5 ovarian and with 786-0 renal was over 100 µM each time.
As for `COc1ccc(-c2c(N)n(-c3cc(OC)cc(OC)c3)c(=O)c3cc([N+](=O)[O-])ccc23)cc1`, the TGI with SN12C renal, in the assay on LOX IMVI melanoma, in the assay with COLO 205 colon, with IGROV1 ovarian, in the assay on SK-MEL-5 melanoma and in the assay on TK-10 renal was over 100 µM in each case. Also, the TGI in the assay on T-47D breast, with RXF 393 renal, in the assay on NCI-H226 lung, in the assay with MDA-MB-435, in the assay on NCI-H23 lung and with ACHN renal was over 100 µM throughout. For the same compound, the TGI with A498 renal was 98.5 µM; in the assay with MOLT-4 leukemia, over 100 µM; in the assay with BT-549 breast, over 93.6 µM; with OVCAR-5 ovarian, over 100 µM; in the assay on 786-0 renal it was over 100 µM.
As to `COC(=O)c1c(C)cccc1C1CN=NC12Cc1c(C)cccc1C2=O` (stereo unspecified), the TGI in the assay on SN12C renal, in the assay on LOX IMVI melanoma, in the assay with COLO 205 colon, in the assay on IGROV1 ovarian, in the assay on SK-MEL-5 melanoma and in the assay on TK-10 renal was over 100 µM throughout. Also, the TGI in the assay on T-47D breast, with RXF 393 renal, in the assay with NCI-H226 lung, in the assay with MDA-MB-435, in the assay on NCI-H23 lung and in the assay on ACHN renal was over 100 µM in each case. In addition, the TGI in the assay on A498 renal, with MOLT-4 leukemia, in the assay on BT-549 breast, in the assay on OVCAR-5 ovarian and in the assay with 786-0 renal was over 100 µM in each case.
For the compound `CC(=O)OCC1OC(Sc2nc(-c3ccc(C)cc3)c(C#N)c(=O)n2C2OC(COC(C)=O)C(OC(C)=O)C(OC(C)=O)C2OC(C)=O)C(OC(C)=O)C(OC(C)=O)C1OC(C)=O` (stereo unspecified), the TGI in the assay with SN12C renal, in the assay on LOX IMVI melanoma, with COLO 205 colon, in the assay with IGROV1 ovarian, with SK-MEL-5 melanoma and with TK-10 renal was over 100 µM throughout. Further, the TGI in the assay on T-47D breast, in the assay with RXF 393 renal, in the assay on NCI-H226 lung, in the assay on MDA-MB-435, in the assay on NCI-H23 lung and in the assay on ACHN renal was over 100 µM each time. Further, the TGI in the assay on A498 renal, in the assay with MOLT-4 leukemia, with BT-549 breast, in the assay with OVCAR-5 ovarian and in the assay on 786-0 renal was over 100 µM each time. Further, the GI50 in the assay on COLO 205 colon is > 100 µM and 10.3 µM; with MDA-MB-435, > 100 µM and 34.7 µM.
Take `Cc1nc(SCC(=O)Nc2ccccc2)c2sc(=S)n(-c3ccccc3)c2n1`: the TGI in the assay with SN12C renal, in the assay on LOX IMVI melanoma, in the assay with COLO 205 colon, in the assay on IGROV1 ovarian, in the assay with SK-MEL-5 melanoma and in the assay on TK-10 renal was over 10 µM each time. In addition, the TGI with T-47D breast is over 10 µM; in the assay on RXF 393 renal, over 10 µM; in the assay on NCI-H226 lung, 8.99 µM; in the assay on MDA-MB-435, over 10 µM; in the assay with NCI-H23 lung it was over 10 µM; in the assay with ACHN renal it was over 10 µM. Further, the TGI in the assay on A498 renal, in the assay with MOLT-4 leukemia, in the assay with BT-549 breast, in the assay on OVCAR-5 ovarian and with 786-0 renal was over 10 µM each time.
For `CNC(=O)OC(C)CN1c2ccccc2Sc2ccccc21` (stereo unspecified), the TGI in the assay on SN12C renal, with LOX IMVI melanoma, with COLO 205 colon, in the assay with IGROV1 ovarian, in the assay on SK-MEL-5 melanoma and in the assay on TK-10 renal was over 100 µM in each case. Further, the TGI in the assay on T-47D breast, in the assay with RXF 393 renal, in the assay on NCI-H226 lung, in the assay on MDA-MB-435, in the assay with NCI-H23 lung and with ACHN renal was over 100 µM each time. For the same compound, the TGI in the assay with A498 renal, in the assay with MOLT-4 leukemia, in the assay with BT-549 breast, in the assay with OVCAR-5 ovarian and in the assay with 786-0 renal was over 100 µM in each case.
Regarding `COc1ccc(C(=O)N=C2N(c3ccccc3)C(=Nc3ccccc3)C(=Nc3ccccc3)N2c2ccccc2)cc1`, the TGI was over 100 µM with SN12C renal; over 100 µM with LOX IMVI melanoma; over 100 µM with COLO 205 colon; over 100 µM in the assay on IGROV1 ovarian; over 56.7 µM in the assay on SK-MEL-5 melanoma; over 61.2 µM in the assay with TK-10 renal. The TGI in the assay with T-47D breast is over 100 µM; in the assay on RXF 393 renal, 25.8 µM; in the assay with NCI-H226 lung, over 100 µM; with MDA-MB-435, over 100 µM; in the assay with NCI-H23 lung, over 100 µM; in the assay with ACHN renal, over 100 µM. Further, the TGI with A498 renal is 61.1 µM; with MOLT-4 leukemia, over 100 µM; in the assay with BT-549 breast, over 58.2 µM; in the assay on OVCAR-5 ovarian, over 100 µM; with 786-0 renal, 59.5 µM.
Consider `COc1ccc(C(F)(F)F)cc1NC(=O)O/N=C(/Cl)C(C)C`, for which the TGI is 32.2 µM with SN12C renal; 13.2 µM with LOX IMVI melanoma; 4.1 µM in the assay on COLO 205 colon; 36.2 µM with IGROV1 ovarian; 25.5 µM in the assay with SK-MEL-5 melanoma; 28.4 µM in the assay with TK-10 renal. Further, the TGI came out at 45.5 µM in the assay on T-47D breast; 36.8 µM in the assay on RXF 393 renal; 35.6 µM in the assay with NCI-H226 lung; 48.1 µM with MDA-MB-435; 40.2 µM with NCI-H23 lung; 26.7 µM in the assay with ACHN renal. Also, the TGI with A498 renal was determined as 66.2 µM; with MOLT-4 leukemia it was 6.2 µM; with BT-549 breast, 41.3 µM; with OVCAR-5 ovarian, 39.1 µM; in the assay with 786-0 renal, 31.8 µM.
